According to patent publication US20220218833A1, “PLATELET-FACILITATED DELIVERY OF THERAPEUTIC COMPOUNDS” (CSTS Health Care Inc., priority 2019, published 2022):
“Also recorded” adds a separate entry of the source. Where no end group is shown, it is not given here.

How the values were obtained:
isolated platelets = assay: Platelet loading of Alexa647-labeled peptides, decrease in supernatant fluorescence; assay type: cell-based; conditions: for absorbance of supernatant, complete versus loaded measurements (loading into platelets): Alexa647-labeled peptides co-incubated with isolated platelets at 37° C. for one hour, FIG. 1A; for loading of attached cargo into platelets, loaded condition normalized to complete condition: Alexa647 as cargo, FIG. 1B
Protocol: Alexa647-labeled GAG-binding peptides, identified in FIG. 1A and FIG. 1B as PAL1 and PAL2 and an Alexa647-labeled control peptide (a charge-free ligand (CFL) which served as a negative control), were tested for their binding affinity for glycosaminoglycans, such as chondroitin sulfate, and their abilities to enter platelets.
Alexa647-labeled peptides or Alexa647 alone were co-incubated with isolated platelets at 37° C. for one hour to allow for platelet loading. The respective platelet-loading ability was indicated by a decrease in fluorescence in supernatant following the incubation. For controls, identical experiments were performed without the incubation period (noted as “complete” in the figure). Platelets following co-incubation were then centrifuged at 800 g for 10-minutes to separate platelets from supernatant (noted as “loaded” in the figure).
FIG. 1B represents the data in FIG. 1A normalized for each peptide experiment, i.e., normalization of a loaded condition to its complete condition.

[1] = test system: alpha granules of platelets; assay: Confocal microscopy of Alexa647-labeled peptides with PF4 alpha granule marker; assay type: cell-based; conditions: for loading of attached cargo into alpha granules of platelets (Alexa647 intensities for each ROI): ROIs selected on PF4 intensity, FIG. 2B
Protocol: To confirm that the Alexa647-labeled GAG-binding peptides were loaded into alpha granules of platelets, confocal microscopy was used. The platelets that were centrifuged in the experiments of FIG. 1A and FIG. 1B, were fixed in 2% paraformaldehyde and settled onto glass coverslips. After permeabilization, immunofluorescence staining was performed against PF4, which is a marker for alpha granules of platelets. Platelets were stained with Alexa568-secondary antibody. Images were collected through a Nikon-A1 laser-scanning microscope equipped with a 60× oil objective lens.
FIG. 2A are representative images with PF4 staining shown in red (left column) and the Alexa647 signal (from the free Alexa647, Alexa647-labeled GAG-binding peptide, or Alexa647-labeled CFL; middle column) shown in purple. Images were only adjusted for brightness and contrast for display. n>5 images were acquired for each experiment and regions of interest (ROIs) were selected based on PF4 intensity.
The Alexa647 intensities for each ROI were measured using ImageJ and plotted in box and whisker graph using Prism 8.

[2] = Affinity chromatography of peptides; assay type: binding; conditions: FIG. 4
Protocol: Additionally, the binding affinities for the two illustrative GAG-binding peptides and the CFL to heparan sulfate (HS) was determined using affinity chromatography.

platelets = assay: Cargo loading into platelets contacted with a non-specific GAG inhibitor; assay type: cell-based; conditions: platelets contacted with the inhibitor
From the text: The present invention is based, in part, on the discovery that cargo can be loaded in alpha granules and that this loading is not receptor-mediated. Instead, cargo loading into platelets, and specifically into their alpha granules, relies on the binding to glycosaminoglycans (GAG) in the alpha granules of the platelets.

## ERRIWFPYRRF (SEQ ID NO: 1) (also: Alexa647 label) [PAL1]
Isolated platelets
  absorbance of supernatant, complete versus loaded measurements (loading into platelets): decrease in absorbance
  loading of attached cargo into platelets, loaded condition normalized to complete condition: facilitates loading of an attached cargo into platelets
[1]
  loading of attached cargo into alpha granules of platelets (Alexa647 intensities for each ROI): facilitates loading of an attached cargo into alpha granules of platelets

## CFL: control peptide, a charge-free ligand, SEQ ID NO: 14, negative control (EGGIWFPYGGF) [reference compound]
Isolated platelets
  absorbance of supernatant, complete versus loaded measurements (loading into platelets): did not change
  loading of attached cargo into platelets, loaded condition normalized to complete condition: unable to direct loading of the cargo into platelets
[2]
  binding to heparan sulfate (HS): did not bind to HS
[1]
  loading of attached cargo into alpha granules of platelets (Alexa647 intensities for each ROI): do not load into platelets
[1]; merged confocal images, FIG. 2A
  colocalization of alpha granule marker PF4 and Alexa647 signal: Co-localization was not observed

## RFRWPYRIREF (SEQ ID NO: 2) (also: Alexa647 label) [PAL2]
Isolated platelets
  absorbance of supernatant, complete versus loaded measurements (loading into platelets): decrease in absorbance
  loading of attached cargo into platelets, loaded condition normalized to complete condition: facilitates loading of an attached cargo into platelets
[2]
  relative affinity for HS, PAL2 versus PAL1: greater affinity for HS than PAL′; also recorded: binds HS tighter than PALL
[1]
  loading of attached cargo into alpha granules of platelets (Alexa647 intensities for each ROI): facilitates loading of an attached cargo into alpha granules of platelets

## Cc1cc(N)c2cc(NC(=O)Nc3ccc4nc(C)cc(N)c4c3)ccc2n1 [Surfen]
platelets
  amount of cargos loaded into platelets: reduced amounts of cargos are loaded into platelets
